Measurements published in PMC6150226, “Inhibition of Human Kallikrein 5 Protease by Triterpenoids from Natural Sources” (Molecules : A Journal of Synthetic Chemistry and Natural …, 2017).
Read-outs that look alike come from different tables or passages of the source. Each block holds one compound with its values, some of them ahead of it.

Assays:
recombinant human KLK5 = molecular target: T1, recombinant human KLK5 (Homo sapiens, UniProt Q9Y337); assay: KLK5 enzymatic assay (Boc-V-P-R-AMC fluorogenic substrate); type: biochemical
T1 construct: purchased R & D Systems Inc
T1 sequence (Q9Y337 23-293): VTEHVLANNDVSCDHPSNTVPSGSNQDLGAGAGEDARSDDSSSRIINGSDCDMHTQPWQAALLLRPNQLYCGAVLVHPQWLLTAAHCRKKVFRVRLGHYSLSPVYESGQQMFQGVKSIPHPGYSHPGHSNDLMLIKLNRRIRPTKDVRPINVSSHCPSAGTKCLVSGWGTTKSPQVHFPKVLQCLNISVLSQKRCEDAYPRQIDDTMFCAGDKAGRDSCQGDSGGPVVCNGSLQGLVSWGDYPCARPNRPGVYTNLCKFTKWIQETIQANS

[1] = Plasma pharmacokinetics of triterpenoids in rats after oral Jumihaidokuto (LC-MS/MS); type: in vivo; settings: rat; for Cmax: male, Sprague-Dawley, plasma
Method: Male Sprague–Dawley rats were purchased from Charles River Laboratories (Yokohama, Japan). The plasma pharmacokinetic study was performed according to the “Guidelines for the Care and Use of Laboratory Animals” of Tsumura & Co. Ethical approval for experimental procedures was obtained from the Laboratory Animal Committee of Tsumura & Co. Jumihaidokuto (JHT, Lot No. 332031900) was supplied by Tsumura & Co. (Tokyo, Japan) in the form of a powdered extract. JHT prepared in distilled water was orally administered to 16-h fasted rats at 2 g/10 mL/kg (n = 3). […] Plasma was obtained by centrifugation at 1700 g for 15 min at 4 °C and stored at −80 °C until further processing. […] Twenty-five microliters of methanol, an equal volume of atropine (2 ng/mL; Wako Pure Chemical Industries) as internal standard, and 750 µL of methanol were added to 200 µL of plasma samples, followed by mixing and centrifugation (7000× g, 5 min). For the preparation of the calibration curve, the same volumes of various concentrations of working solution were used instead of methanol. The supernatant was dried at 40 °C under a stream of nitrogen gas. The dried residue was dissolved in 50–60 μL of the initial mobile phase used for liquid chromatography–mass spectrometry with a tandem mass spectrometry system (LC-MS/MS; API4000 or Triple Quad 6500; AB Sciex, Tokyo, Japan) and then a 10- or 20-μL portion was injected into the LC-MS/MS system for the quantification of triterpenoids.

[2] = molecular target: T2, recombinant human pro-KLK7 activated by thermolysin (Kallikrein 7) (Homo sapiens, UniProt P49862); assay: KLK7 enzymatic assay (fluorogenic peptide substrate II); type: biochemical
T2 construct: purchased R & D Systems Inc
T2 sequence (P49862 30-253): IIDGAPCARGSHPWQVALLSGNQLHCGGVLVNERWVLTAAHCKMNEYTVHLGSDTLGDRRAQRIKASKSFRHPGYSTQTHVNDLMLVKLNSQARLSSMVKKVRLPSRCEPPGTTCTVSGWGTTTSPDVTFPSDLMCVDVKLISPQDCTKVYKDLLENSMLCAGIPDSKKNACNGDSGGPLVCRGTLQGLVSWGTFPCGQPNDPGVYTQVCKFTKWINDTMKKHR

[3] = system: recombinant human trypsin; assay: Trypsin enzymatic assay (Boc-V-P-R-AMC); type: biochemical; settings: for IC50: 0.78-100 μM, linear interpolation
Method: (§1) KLK5, KLK7, trypsin, and chymotrypsin C activities were evaluated according to the following methods supplied by R & D Systems Inc. (Minneapolis, MN, USA). The enzyme activity-dependent increase in the relative fluorescent unit (RFU) was measured, and the percentage of inhibition was calculated based on the formula: (1 − (A − B)/(C − B)) × 100, where A = RFU of test samples with enzymes, B = basal RFU without enzymes, and C = RFU of vehicle controls with enzymes.
To measure the trypsin activity, enzymatic reaction was performed at room temperature in 100 mM NaH2PO4 buffer (pH 8.0) containing 0.25 μg/mL recombinant human trypsin (Wako Pure Chemical Industries), 100 μM of Boc-V-P-R-AMC Fluorogenic Peptide Substrate, and 1.1% DMSO at final concentrations. […] was preincubated with test samples for 5 min, followed by the addition of peptide substrate. After incubating for 1 min, RFU was measured at Ex 380 nm/Em 460 nm. Leupeptin hemisulfate (42.1 μM) was used as a positive control.

[4] = molecular target: T3, recombinant human pro-chymotrypsin C activated by trypsin (Chymotrypsin C) (Homo sapiens, UniProt Q99895); assay: Chymotrypsin C enzymatic assay (Suc-A-A-P-F-AMC); type: biochemical; settings: for IC50: 0.78-100 μM, linear interpolation
T3 construct: purchased R & D Systems Inc
T3 sequence (Q99895 30-268, other chains not shown): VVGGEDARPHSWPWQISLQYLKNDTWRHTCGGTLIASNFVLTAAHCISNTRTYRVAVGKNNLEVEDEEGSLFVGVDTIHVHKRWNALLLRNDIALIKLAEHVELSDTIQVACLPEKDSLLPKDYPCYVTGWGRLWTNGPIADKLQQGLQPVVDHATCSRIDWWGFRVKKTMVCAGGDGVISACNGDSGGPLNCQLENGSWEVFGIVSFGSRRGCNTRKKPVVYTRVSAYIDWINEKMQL
Method: as §1, with “enzymes. […] Activated chymotrypsin C (final 34.7 nM) was preincubated with test samples for 5 min, followed by the addition of peptide substrate. After incubating for 60 min, RFU was measured at Ex 380 nm/Em 460 nm.” for “enzymes.”

[5] = system: LL-37 production in normal human epidermal keratinocytes (NHEKs); type: cell-based
NHEKs = assay: Cell growth test (XTT-based cell viability assay); parameters: species or system human; settings: ursolic acid 0.5 and 5 μM, tumulosic acid 1 and 10 μM; 24 h; with or without 10 μM cycloheximide
[6] = 10 μM test compound, KLK5 8.1 nM, substrate 100 μM, mean ± SEM of triplicate
[7] = 10 μM test compound, KLK5 8.1 nM, substrate 100 μM, mean ± SEM of triplicate, read-out: Anti-KLK5 Activity % Inhibition
[8] = dose-response experiment of Figure 2, read-out: IC50 anti-KLK5 activity
[9] = 2 g/kg, single oral Jumihaidokuto 2 g/10 mL/kg
[10] = single oral Jumihaidokuto 2 g/10 mL/kg

Anti-KLK5 Activity % Inhibition (recombinant human KLK5; [6]): did not influence the KLK5 activity
inhibition at 10 µM (recombinant human KLK5; [7]): -1.8 ± 2.8%
Compound: C[C@@H]1C[C@H]2[C@@H]3CCC4=CC(=O)C=C[C@]4(C)[C@@]3(F)[C@@H](O)C[C@]2(C)[C@@]1(O)C(=O)CO [Dexamethasone, reference compound]

Compound: C=C(CC[C@@H](C(=O)O)[C@H]1[C@H](O)C[C@@]2(C)C3=C(CC[C@]12C)[C@@]1(C)CC[C@H](OC(C)=O)C(C)(C)[C@@H]1CC3)C(C)C [Pachymic acid]
inhibition at 10 µM (recombinant human KLK5; [7]): 56.2 ± 1.5%
IC50 (recombinant human KLK5; [8]): 5.9 µM
Cmax [1, 9]: 2.1 ng/mL
time of Cmax [1, 10]: 6 h

inhibition at 10 µM (recombinant human KLK5; [7]): 8.8 ± 2%
Compound: CC1(C)CCC2(C(=O)O)C(C1)C1=CCC3C4(C)CC(O)C(O)C(CO)(CO)C4CCC3(C)[C@]1(C)C[C@H]2O (stereo partly drawn) [Platycodigenin]

Anti-KLK5 Activity % Inhibition (recombinant human KLK5; [6]): did not influence the KLK5 activity
inhibition at 10 µM (recombinant human KLK5; [7]): 5.5 ± 2.3%
Compound: CC1(C)CCC2(C(=O)O)C(O)CC3(C)C(=CCC4C5(C)CC(O)C(O)C(C)(CO)C5CCC43C)C2C1 (stereo not drawn) [Polygalacic acid]

inhibition at 30 µM (recombinant human KLK5; 30 μM, KLK5 8.1 nM, substrate 100 μM, mean ± SEM of triplicate, read-out: Anti-KLK5 Activity % Inhibition): 16 ± 1.2%
Compound: CC1(C(=O)O)CCC2(C)CCC3(C)C(=CC(=O)C4C5(C)CCC(O)C(C)(C)C5CCC43C)C2C1 (stereo not drawn) [18β-Glycyrrhetinic acid]

inhibition at 10 µM (recombinant human KLK5; [7]): 4.1 ± 1.6%
Compound: CC1OC(OC2C(COC3OC(CO)C(O)C(O)C3O)OC(OC3CCC4(C)C(CCC5(C)C4C=CC46OCC7(CCC(C)(C)CC74)[C@@H](O)C[C@@]56C)C3(C)C)C(O)C2O)C(O)C(O)C1O (stereo partly drawn) [Saikosaponin c]

Compound: CC(=O)N[C@@H](CC(C)C)C(=O)N[C@@H](CC(C)C)C(=O)N[C@H](C=O)CCCN=C(N)N.CC(=O)N[C@@H](CC(C)C)C(=O)N[C@@H](CC(C)C)C(=O)N[C@H](C=O)CCCN=C(N)N.O=S(=O)(O)O [Leupeptin hemisulfate, reference compound]
Anti-KLK5 Activity % Inhibition (recombinant human KLK5; 42.1 μM (positive control), KLK5 8.1 nM, mean ± SEM of triplicate): 96.9 ± 0.1%
Anti-KLK5 Activity % Inhibition (recombinant human KLK5; 42.1 μM (positive control), KLK5 8.1 nM, mean ± SEM of triplicate, listed as leupeptin hemisulfate): completely inhibited

Anti-KLK5 Activity % Inhibition (recombinant human KLK5; [6]): −1.5 ± 3.6%
Compound: CC1(C)CCC2(CO)C(=C3C=CC4C5(C)CCC(O)C(C)(CO)C5CCC4(C)C3(C)CC2O)C1 (stereo not drawn) [Saikogenin D]

Compound: C=C(CC[C@@H](C(=O)O)C1[C@H](O)C[C@@]2(C)C3=CCC4C(C)(CCC(OC(C)=O)C4(C)C)C3=CCC12C)C(C)C (stereo partly drawn) [Dehydropachymic acid]
inhibition at 10 µM (recombinant human KLK5; [7]): 33.9 ± 3.7%

Anti-KLK5 Activity % Inhibition (recombinant human KLK5; [6]): 21.1 ± 1.4%
Compound: CC1OC(OC2CCC3(C)C(CCC4(C)C3C=CC3=C5CC(C)(C)CCC5(CO)C(O)CC34C)C2(C)CO)C(O)C(OC2OC(CO)C(O)C(O)C2O)C1O (stereo not drawn) [Saikosaponin b2]

Compound: C[C@H]1O[C@@H](O[C@H]2CC[C@@]3(C)[C@@H](CC[C@]4(C)[C@@H]3C=C[C@]35OC[C@@]6(CCC(C)(C)C[C@H]63)[C@@H](O)C[C@]54C)[C@]2(C)CO)[C@H](O)[C@@H](O[C@@H]2O[C@H](CO)[C@@H](O)[C@H](O)[C@H]2O)[C@H]1O [Saikosaponin a]
inhibition at 10 µM (recombinant human KLK5; [7]): 4.3 ± 0.7%

Compound: C=C(CC[C@@H](C(=O)O)[C@H]1[C@H](O)C[C@@]2(C)C3=C(CC[C@]12C)[C@@]1(C)CC[C@H](O)C(C)(C)[C@@H]1CC3)C(C)C [Tumulosic acid]
inhibition at 10 µM (recombinant human KLK5; [7]): 36 ± 1.9%
inhibition at 100 µM (recombinant human KLK5; 100 μM, read-out: Inhibition % at 100 μM, Kallikrein 5): 58.7 ± 0.2%
IC50 (recombinant human KLK5; [8]): 19.3 µM
IC50 (recombinant human KLK5; selectivity experiment of Table 2, 0.78-100 μM, linear interpolation, read-out: IC50 Kallikrein 5): 14.8 µM
inhibition at 100 µM [2]: 19.5 ± 1.5%
IC50 ([2]; 0.78-100 μM, linear interpolation): > 100 µM
Inhibition % at 100 μM, Trypsin [3]: 73.2 ± 1.6%
IC50 ([3]; listed as Tumulosic Acid): 45.3 µM
IC50 ([3]; listed as tumulosic acid): 10.5 µM
Inhibition % at 100 μM, Chymotrypsin C ([4]; 100 μM): 4.1 ± 5.2%
inhibition at 100 µM ([4]; 100 μM): 4%
IC50 [4]: > 100 µM
amount of LL-37 in NHEK lysates [5]: decreased
cytotoxic effect on cell proliferation (NHEKs): No cytotoxic effect
Cmax [1, 9]: 116 ng/mL
Cmax ([1]; single oral Jumihaidokuto 2 g/kg, converted from 116.1 ng/mL): 238 nM
time of Cmax [1, 10]: 2 h

Compound: C=C(CC[C@@H](C(=O)O)[C@H]1[C@H](O)C[C@@]2(C)C3=CC[C@H]4C(C)(C)[C@@H](O)CC[C@]4(C)C3=CC[C@]12C)C(C)C [Dehydrotumulosic acid]
inhibition at 10 µM (recombinant human KLK5; [7]): -46.2 ± 2.7%

inhibition at 10 µM (recombinant human KLK5; [7]): -6 ± 2.9%
Compound: C[C@@H]1O[C@@H](O[C@H]2[C@H](OC(=O)[C@]34CCC(C)(C)C[C@H]3C3=CC[C@@H]5[C@@]6(C)C[C@H](O)[C@H](O[C@@H]7O[C@H](CO)[C@@H](O)[C@H](O)[C@H]7O)C(CO)(CO)[C@@H]6CC[C@@]5(C)[C@]3(C)C[C@H]4O)OC[C@H](O)[C@@H]2O)[C@H](O)[C@H](O)[C@H]1O[C@@H]1OC[C@@H](O)[C@H](O[C@@H]2OC[C@](O)(CO)[C@H]2O)[C@H]1O [Platycodin D]

Anti-KLK5 Activity % Inhibition (recombinant human KLK5; [6]): 24.3 ± 2.6%
Compound: CC1(C)CCC2(CO)C(=C3C=CC4C5(C)CCC(O)C(C)(CO)C5CCC4(C)C3(C)CC2O)C1 (stereo not drawn) [Saikogenin A]

inhibition at 10 µM (recombinant human KLK5; [7]): 39.6 ± 1.6%
IC50 (recombinant human KLK5; [8]): 14.4 µM
Compound: C[C@H]1O[C@@H](O[C@H]2CC[C@@]3(C)[C@@H](CC[C@]4(C)[C@@H]3C=CC3=C5CC(C)(C)CC[C@]5(CO)[C@@H](O)C[C@]34C)[C@]2(C)CO)[C@H](O)[C@@H](O[C@@H]2O[C@H](CO)[C@@H](O)[C@H](O)[C@H]2O)[C@H]1O [Saikosaponin b1]

Compound: CC1OC(OC2CCC3(C)C(CCC4(C)C3C=CC35OCC6(CCC(C)(C)CC63)C(O)CC45C)C2(C)CO)C(O)C(OC2OC(CO)C(O)C(O)C2O)C1O (stereo not drawn) [Saikosaponin d]
inhibition at 10 µM (recombinant human KLK5; [7]): -10.4 ± 3.5%

Compound: C=C(CC[C@@H](C(=O)O)[C@H]1CC[C@@]2(C)C3=C(CC[C@]12C)[C@@]1(C)CC[C@H](O)C(C)(C)[C@@H]1CC3)C(C)C [Eburicoic acid]
inhibition at 10 µM (recombinant human KLK5; [7]): -51 ± 3%

Anti-KLK5 Activity % Inhibition (recombinant human KLK5; [6]): did not influence the KLK5 activity
inhibition at 10 µM (recombinant human KLK5; [7]): 5.5 ± 2.5%
Compound: C=C(C)[C@@H]1CC[C@]2(C(=O)O)CC[C@]3(C)[C@H](CC[C@@H]4[C@@]5(C)CC[C@H](O)C(C)(C)[C@@H]5CC[C@]43C)[C@@H]12 [Betulinic acid]

Compound: C[C@H]1[C@H](C)CC[C@]2(C(=O)O)CC[C@]3(C)C(=CC[C@@H]4[C@@]5(C)CC[C@H](O)C(C)(C)[C@@H]5CC[C@]43C)[C@H]12 [Ursolic acid]
inhibition at 10 µM (recombinant human KLK5; read-out: Anti-KLK5 Activity % Inhibition): 54.6 ± 1.3%
Inhibition % at 100 μM, Trypsin [3]: 76.9 ± 3.5%
IC50 ([3]; listed as Ursolic Acid): 14.8 µM
IC50 ([3]; listed as ursolic acid): 10.5 µM
inhibition at 100 µM ([4]; 100 μM): 35.3 ± 2.9%
IC50 [4]: > 100 µM
amount of LL-37 in NHEK lysates ([5]; ursolic acid 0.5 and 5 μM, tumulosic acid 1 and 10 μM, 23 h, in the presence of 10 μM cycloheximide): decreased

IC50 (recombinant human KLK5; [8]): 6.4 µM
Compound: CC1(C)CC[C@]2(C(=O)O)CC[C@]3(C)C(=CC[C@@H]4[C@@]5(C)CC[C@H](O)C(C)(C)[C@@H]5CC[C@]43C)[C@@H]2C1 [Oleanolic acid]
